Patent US20250092064A1, “BENZOTRIAZOLE COMPOUND” (DAIICHI SANKYO COMPANY, LIMITED, priority 2022, published 2025)
pIC50: −log10 of the molar value.

Tests used:
[1] = biological target: binding between Nrf2 and Keap1 (Homo sapiens (Human), UniProt Q14145); assay: FP assay (in vitro): inhibition of Nrf2-Keap1 binding by fluorescence polarization; settings: GST-fused human Keap1 (325-642) 20 nM, FITC-labeled Nrf2 peptide 10 nM, 2 hr at room temperature
[2] = tested on: NQO1 activity in Hepa1c1c7 cells; assay: NAD(P)H: quinone oxidoreductase-1 (NQO1) enzyme induction assay (in vitro); assay type: cell-based, mouse; settings: Mus musculus, Hepa-1c1c7, NQO1 activity with 400 nM test compound as a ratio from the base without compound, about 48 hr
Method in brief: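 Mouse Hepa1c1c7 hepatoma cells treated 48 hr with 400 nM compound (final). NQO1 activity in lysates read by absorbance at 610 nm; value is background-subtracted activity ratio versus untreated cells.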

binding between Nrf2 and Keap1, sequence (Q14145 325-624 limits assumed): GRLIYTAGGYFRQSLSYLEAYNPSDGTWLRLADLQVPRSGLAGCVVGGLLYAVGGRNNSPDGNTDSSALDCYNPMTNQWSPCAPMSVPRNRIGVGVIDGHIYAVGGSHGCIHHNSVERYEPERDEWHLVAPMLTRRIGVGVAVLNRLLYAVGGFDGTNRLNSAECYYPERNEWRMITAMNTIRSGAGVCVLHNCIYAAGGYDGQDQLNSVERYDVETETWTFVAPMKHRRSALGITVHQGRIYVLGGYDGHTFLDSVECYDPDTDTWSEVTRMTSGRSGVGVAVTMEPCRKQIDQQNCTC

pIC50 [1] | Compound | fold induction at 0.4 µM [2]
7.52 to 8.00 | CC[C@@H]1CN(Cc2cc(C(CC(=O)O)c3cc(OC(F)(F)F)c4c(nnn4C)c3C)cc3ccsc23)S(=O)(=O)c2cc(Cl)cnc2O1 (stereo partly drawn) [Example 54, 3-(7-{[(4R)-8-Chloro-4-ethyl-1,1-dioxido-3,4-dihydro-2H-pyrido[2,3-b][1,4,5]oxathiazepin-2-yl]methyl}-1-benzothiophen-5-yl)-3-[1,4-dimethyl-7-(trifluoromethoxy)-1H-benzotriazol-5-yl]propanoic acid] | > 5
7.52 to 8.00 | CC[C@@H]1CN(Cc2cc(C(CC(=O)O)c3cc(OC(F)F)c4c(nnn4C)c3C)cc3ccsc23)S(=O)(=O)c2cc(Cl)cnc2O1 (stereo partly drawn) [Example 55, 3-(7-{[(4R)-8-Chloro-4-ethyl-1,1-dioxido-3,4-dihydro-2H-pyrido[2,3-b][1,4,5]oxathiazepin-2-yl]methyl}-1-benzothiophen-5-yl)-3-[7-(difluoromethoxy)-1,4-dimethyl-1H-benzotriazol-5-yl]propanoic acid] | > 5
7.52 to 8.00 | CC[C@@H]1CN(Cc2cc(C(CC(=O)O)c3ccc4c(nnn4CC(C)(C)O)c3C)cc3ccsc23)S(=O)(=O)c2cc(Cl)cnc2O1 (stereo partly drawn) [Example 56, 3-(7-{[(4R)-8-Chloro-4-ethyl-1,1-dioxido-3,4-dihydro-2H-pyrido[2,3-b][1,4,5]oxathiazepin-2-yl]methyl}-1-benzothiophen-5-yl)-3-[1-(2-hydroxy-2-methylpropyl)-4-methyl-1H-benzotriazol-5-yl]propanoic acid] | > 5
7.52 to 8.00 | CC[C@@H]1CN(Cc2cc(C(CC(=O)O)c3ccc4c(nnn4CCCS(C)(=O)=O)c3C)cc3ccsc23)S(=O)(=O)c2cc(Cl)cnc2O1 (stereo partly drawn) [Example 57, 3-(7-{[(4R)-8-Chloro-4-ethyl-1,1-dioxido-3,4-dihydro-2H-pyrido[2,3-b][1,4,5]oxathiazepin-2-yl]methyl}-1-benzothiophen-5-yl)-3-{4-methyl-1-[3-(methylsulfonyl)propyl]-1H-benzotriazol-5-yl}propanoic acid] | > 5
7.00 to 7.52 | CC[C@@H]1CN(Cc2cc(C(CC(=O)O)c3ccc4c(nnn4CCN(C)C)c3C)cc3ccsc23)S(=O)(=O)c2cc(Cl)cnc2O1 (stereo partly drawn) [Example 58, 3-(7-{[(4R)-8-Chloro-4-ethyl-1,1-dioxido-3,4-dihydro-2H-pyrido[2,3-b][1,4,5]oxathiazepin-2-yl]methyl}-1-benzothiophen-5-yl)-3-{1-[2-(dimethylamino)ethyl]-4-methyl-1H-benzotriazol-5-yl}propanoic acid] | > 5
7.52 to 8.00 | CC[C@@H]1CN(Cc2cc(C(CC(=O)O)c3cnc4c(nnn4C)c3C)cc3ccsc23)S(=O)(=O)c2cc(Cl)cnc2O1 (stereo partly drawn) [Example 59, 3-(7-{[(4R)-8-Chloro-4-ethyl-1,1-dioxido-3,4-dihydro-2H-pyrido[2,3-b][1,4,5]oxathiazepin-2-yl]methyl}-1-benzothiophen-5-yl)-3-(3,7-dimethyl-3H-[1,2,3]triazolo[4,5-b]pyridin-6-yl)propanoic acid] | > 5
7.52 to 8.00 | CC[C@@H]1CN(Cc2cc(C(CC(=O)O)c3ccc4c(nnn4CC(F)(F)F)c3C)cc3ccsc23)S(=O)(=O)c2cc(Cl)cnc2O1 (stereo partly drawn) [Example 60, 3-(7-{[(4R)-8-Chloro-4-ethyl-1,1-dioxido-3,4-dihydro-2H-pyrido[2,3-b][1,4,5]oxathiazepin-2-yl]methyl}-1-benzothiophen-5-yl)-3-[4-methyl-1-(2,2,2-trifluoroethyl)-1H-benzotriazol-5-yl]propanoic acid] | > 5
7.52 to 8.00 | CC[C@@H]1CN(Cc2cc(C(CC(=O)O)c3ccc4c(nnn4C)c3C)cc3ccsc23)[C@@H](C)c2ncccc2O1 (stereo partly drawn) [Example 61, 3-(1,4-Dimethyl-1H-benzotriazol-5-yl)-3-(7-{[(2R,5S)-2-ethyl-5-methyl-2,3-dihydropyrido[2,3-f][1,4]oxazepin-4(5H)-yl]methyl}-1-benzothiophen-5-yl)propanoic acid] | > 5
7.52 to 8.00 | CC[C@@H]1CN(Cc2cc([C@@H](CC(=O)O)c3ccc4c(nnn4C)c3C)cc3ccsc23)[C@@H](C)c2ncccc2O1 [Example 63, (3R)-3-(1,4-Dimethyl-1H-benzotriazol-5-yl)-3-(7-{[(2R,5S)-2-ethyl-5-methyl-2,3-dihydropyrido[2,3-f][1,4]oxazepin-4(5H)-yl]methyl}-1-benzothiophen-5-yl)propanoic acid] | > 5
≥ 8.00 | CC[C@@H]1CN(Cc2cc([C@H](CC(=O)O)c3cc(Cl)c4c(nnn4C)c3C)cc3ccsc23)[C@@H](C)c2ncccc2O1 [Example 64, (3S)-3-(7-Chloro-1,4-dimethyl-1H-benzotriazol-5-yl)-3-(7-{[(2R,5S)-2-ethyl-5-methyl-2,3-dihydropyrido[2,3-f][1,4]oxazepin-4(5H)-yl]methyl}-1-benzothiophen-5-yl)propanoic acid] | 3 to 5
7.52 to 8.00 | CC[C@@H]1CN(Cc2cc([C@@H](CC(=O)O)c3ccc4c(nnn4C)c3C)cc3c2CCC3)[C@@H](C)c2ncccc2O1 [Example 65, (3R)-3-(1,4-Dimethyl-1H-benzotriazol-5-yl)-3-(7-{[(2R,5S)-2-ethyl-5-methyl-2,3-dihydropyrido[2,3-f][1,4]oxazepin-4(5H)-yl]methyl}-2,3-dihydro-1H-inden-5-yl)propanoic acid] | > 5
7.52 to 8.00 | CC[C@@H]1CN(Cc2cc([C@H](CC(=O)O)c3ccc4c(nnn4C)c3C)cc3c2CCC3)[C@@H](C)c2ncccc2O1 [Example 66, (3S)-3-(1,4-Dimethyl-1H-benzotriazol-5-yl)-3-(7-{[(2R,5S)-2-ethyl-5-methyl-2,3-dihydropyrido[2,3-f][1,4]oxazepin-4(5H)-yl]methyl}-2,3-dihydro-1H-inden-5-yl)propanoic acid] | > 5
≥ 8.00 | CC[C@@H]1CN(Cc2cc([C@@H](CC(=O)O)c3cc(C)c4c(nnn4C)c3C)cc3ccsc23)[C@@H](C)c2ncccc2O1 [Example 67, (3R)-3-(7-{[(2R,5S)-2-Ethyl-5-methyl-2,3-dihydropyrido[2,3-f][1,4]oxazepin-4(5H)-yl]methyl}-1-benzothiophen-5-yl)-3-(1,4,7-trimethyl-1H-benzotriazol-5-yl)propanoic acid] | > 5
≥ 8.00 | CC[C@@H]1CN(Cc2cc([C@H](CC(=O)O)c3cc(C)c4c(nnn4C)c3C)cc3ccsc23)[C@@H](C)c2ncccc2O1 [Example 68, (3S)-3-(7-{[(2R,5S)-2-Ethyl-5-methyl-2,3-dihydropyrido[2,3-f][1,4]oxazepin-4(5H)-yl]methyl}-1-benzothiophen-5-yl)-3-(1,4,7-trimethyl-1H-benzotriazol-5-yl)propanoic acid] | > 5
≥ 8.00 | CC[C@@H]1CN(Cc2cc([C@H](CC(=O)O)c3cc(C)c4c(nnn4C)c3C)cc3c2CCC3)[C@@H](C)c2ncccc2O1 [Example 69, (3S)-3-(7-{[(2R,5S)-2-Ethyl-5-methyl-2,3-dihydropyrido[2,3-f][1,4]oxazepin-4(5H)-yl]methyl}-2,3-dihydro-1H-inden-5-yl)-3-(1,4,7-trimethyl-1H-benzotriazol-5-yl)propanoic acid] | 3 to 5
